Measured values as given in PubChem BioAssay AID256 (DTP/NCI, 2004).
Where “and” joins values, the source holds several entries; their conditions need not be identical. Identical values can stand only once. Toxic doses and inconclusive results are not listed.

System: CD2F1 mice, L1210 leukemia ip, survival T/C
Test: NCI In Vivo Anticancer Drug Screen. Data for tumor model L1210 Leukemia (intraperitoneal) in CD2F1 (CDF1) mice
Details: endpoint: mean survival time, higher = longer survival
How it was run: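 In this screen, transplantable tumors were grown in mice given either the compound or its vehicle. Results were expressed as the treated measurement relative to the control measurement.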

[1] = dose: 100.0 mg/kg/injection, schedule: Q01DX009 (ip), vehicle: saline with Tween-80
[2] = dose: 200.0 mg/kg/injection, schedule: Q01DX009 (ip), vehicle: saline with Tween-80
[3] = dose: 400.0 mg/kg/injection, schedule: Q01DX009 (ip), vehicle: saline with Tween-80
[4] = dose: 100.0 mg/kg/injection, schedule: Q04DX002 (ip), vehicle: saline with Tween-80
[5] = dose: 200.0 mg/kg/injection, schedule: Q04DX002 (ip), vehicle: saline with Tween-80
[6] = dose: 50.0 mg/kg/injection, schedule: Q01DX009 (ip), vehicle: saline with Tween-80

For `O=C(O)CCCCCCC(=O)c1ccccc1`, the T/C [1] was 98 % of control, the T/C [2] was 97 % of control and the T/C [3] was 93 % of control.
With `Cc1cc(=O)c(C(=O)O)c(C)[nH]1` the T/C [4] was 86 % of control, the T/C [5] was 86 % of control and the T/C (dose: 400.0 mg/kg/injection, schedule: Q04DX002 (ip), vehicle: saline with Tween-80) was 91 % of control.
`CC12CC1(C)C(=O)OC2=O` (stereo not given) was tested, and the T/C [6] was 96 % of control, the T/C [1] was 95 % of control and the T/C [2] was 96 % of control.
In the case of `CC(C)(C)OOC(=O)c1ccccn1`, the T/C [4] is reported as 95 % of control and the T/C [5] is reported as 95 % of control.
`NC(CSS(=O)(=O)O)=NCCSS(=O)(=O)O` was tested, and the T/C (dose: 100.0 mg/kg/injection, schedule: Q04DX003 (ip), vehicle: saline) was 97 % of control and the T/C (dose: 200.0 mg/kg/injection, schedule: Q04DX003 (ip), vehicle: saline) was 97 % of control.
With `COc1ccc(CC2C(=O)NC(C)C(=O)N(C)C3C(=O)N(C)C(Cc4ccc(O)c(c4)Oc4ccc(cc4)C3O)C(=O)NC(C)C(=O)NC(C)C(=O)N2C)cc1` (stereo not given) the T/C (dose: 0.06 mg/kg/injection, schedule: Q01DX009 (ip), vehicle: saline) was 106 % of control, the T/C (dose: 0.12 mg/kg/injection, schedule: Q01DX009 (ip), vehicle: saline) was 113 % of control and 102 % of control and 104 % of control and the T/C (dose: 0.25 mg/kg/injection, schedule: Q01DX009 (ip), vehicle: Klucel (hydroxypropylcellulose) (HPC)) was 113 % of control and 110 % of control. The T/C (dose: 0.25 mg/kg/injection, schedule: Q01DX009 (ip), vehicle: saline) was 114 % of control and 97 % of control and 108 % of control, the T/C (dose: 0.5 mg/kg/injection, schedule: Q01DX009 (ip), vehicle: Klucel (hydroxypropylcellulose) (HPC)) was 113 % of control and 103 % of control and the T/C (dose: 0.5 mg/kg/injection, schedule: Q01DX009 (ip), vehicle: saline) was 104 % of control and 109 % of control. The T/C (dose: 1.0 mg/kg/injection, schedule: Q01DX009 (ip), vehicle: Klucel (hydroxypropylcellulose) (HPC)) was 113 % of control and 110 % of control, the T/C (dose: 1.0 mg/kg/injection, schedule: Q01DX009 (ip), vehicle: saline) was 113 % of control and 114 % of control and 110 % of control and the T/C (dose: 2.0 mg/kg/injection, schedule: Q01DX009 (ip), vehicle: Klucel (hydroxypropylcellulose) (HPC)) was 113 % of control and 111 % of control. For the same molecule, the T/C (dose: 2.0 mg/kg/injection, schedule: Q01DX009 (ip), vehicle: saline) was 116 % of control and 123 % of control, the T/C (dose: 4.0 mg/kg/injection, schedule: Q01DX009 (ip), vehicle: Klucel (hydroxypropylcellulose) (HPC)) was 119 % of control and the T/C (dose: 4.0 mg/kg/injection, schedule: Q01DX009 (ip), vehicle: saline) was 88 % of control and 96 % of control.
`CCOC(=O)C(C#N)N=Nc1ccccc1` (stereo not given) was tested, and the T/C [1] was 95 % of control, the T/C [2] was 95 % of control and the T/C [3] was 95 % of control.
For `Cc1ccc(S(=O)(=O)O)c2c([N+](=O)[O-])cccc12`, the T/C (dose: 100.0 mg/kg/injection, schedule: Q04DX003 (ip), vehicle: saline with Tween-80) was 100 % of control, the T/C (dose: 200.0 mg/kg/injection, schedule: Q04DX003 (ip), vehicle: saline with Tween-80) was 104 % of control and the T/C (dose: 400.0 mg/kg/injection, schedule: Q04DX003 (ip), vehicle: saline with Tween-80) was 96 % of control.
In the case of `C#CC(C)(O)CCCCCC` (stereo not given), the T/C [1] is reported as 113 % of control and the T/C [2] is reported as 100 % of control.
With `O=C(Nc1cc(Cl)c(Cl)cc1Cl)Nc1cc(Cl)ccc1Oc1ccc(Cl)cc1S(=O)(=O)O` the T/C (dose: 100.0 mg/kg/injection, schedule: Q01DX001 (ip), vehicle: saline with Tween-80) was 96 % of control and the T/C (dose: 200.0 mg/kg/injection, schedule: Q01DX001 (ip), vehicle: saline with Tween-80) was 98 % of control.
In the case of `c1cnc2ncncc2n1`, the T/C (dose: 12.5 mg/kg/injection, schedule: Q01DX009 (ip), vehicle: saline with Tween-80) is reported as 94 % of control and 102 % of control, the T/C (dose: 25.0 mg/kg/injection, schedule: Q01DX009 (ip), vehicle: saline with Tween-80) is reported as 94 % of control and 102 % of control and the T/C [6] is reported as 105 % of control and 106 % of control. For the same molecule, the T/C [1] was 94 % of control and 104 % of control and the T/C [2] was 96 % of control and 110 % of control.
In the case of `Nc1ccc(OC(=O)Oc2ccc(N)cc2)cc1`, the T/C (dose: 18.75 mg/kg/injection, schedule: Q06HX068 (ip), vehicle: other) is reported as 87 % of control, the T/C (dose: 18.75 mg/kg/injection, schedule: Q#A X034 (ip), vehicle: other) is reported as 100 % of control and the T/C (dose: 37.5 mg/kg/injection, schedule: Q01DX017 (ip), vehicle: other) is reported as 106 % of control. For the same molecule, the T/C (dose: 37.5 mg/kg/injection, schedule: Q#A X034 (ip), vehicle: other) was 103 % of control, the T/C (dose: 75.0 mg/kg/injection, schedule: Q01DX001 (ip), vehicle: other) was 100 % of control and the T/C (dose: 75.0 mg/kg/injection, schedule: Q01DX005 (ip), vehicle: other) was 112 % of control. For the same molecule, the T/C (dose: 150.0 mg/kg/injection, schedule: Q01DX001 (ip), vehicle: other) was 102 % of control, the T/C (dose: 150.0 mg/kg/injection, schedule: Q01DX017 (ip), vehicle: other) was 154 % of control and the T/C (dose: 150.0 mg/kg/injection, schedule: Q#A X034 (ip), vehicle: other) was 155 % of control. The T/C (dose: 300.0 mg/kg/injection, schedule: Q01DX001 (ip), vehicle: other) was 103 % of control.
